# Tests used:
# [1] = Chemical hydrolysis in PBS, pH 7.3; type: physicochemical; details: PBS pH 7.3, 37 °C; for t1/2(1) PBS, pH=7.3: removal of first masking unit (half-lives of 3); for t1/2(2) PBS, pH=7.3: second hydrolysis step, half-lives of intermediate 4 to give d4TTP 19
# Description: Stock solutions (50 mM in DMSO-d6) of the appropriate compounds were prepared. After dilution of 11 μl with 100 μl Millipore water and 189 μl DMSO-d6 to 1.9 mM hydrolysis solutions the reaction was started by the addition of 300 μl PBS (50 mM, pH 7.3). The solution was incubated at 37 °C in a thermomixer. An initial aliquot (25 μl) was taken directly and analysed by analytical HPLC at 265–266 nm. Further aliquots were taken for monitoring the kinetic hydrolysis. The exponential decay curves (pseudo-first order) based on absolute integral values were calculated with commercially available software (OriginPro 9.0G) and yielded the half-lives t1/2(1) and t1/2(2) of the prodrugs via one determination.
# pig liver esterase (PLE) = assay: Enzymatic hydrolysis with pig liver esterase (PLE) in PBS; type: in vitro ADME; details: PLE in PBS pH 7.3, 37 °C; for t1/2(1) PLE: removal of first masking unit (half-lives of 3); for t1/2(2) PLE: second hydrolysis step, half-lives of intermediate 4
# Description: Furthermore, 140 μl of the 6.0 mM solution was diluted with 105 μl DMSO-d6 and 700 μl 50 mM PBS buffer. The reaction was started by addition of 52.5 μl of PLE in PBS buffer (3 mg ml^−1) and the mixture was incubated at 37 °C in a thermomixer. At different times, aliquots (125 μl) were taken and treated as follows: (a) for 3a–g,l,m and 4a,e the reaction was stopped by addition to 132.5 μl MeOH. […] (b) For 3h,i,k,n and 4j, the sample was directly frozen in liquid nitrogen.
# HIV-2(ROD) [2] = assay: Anti-HIV activity assay, HIV-2 in TK-deficient CEM/TK− cells; type: cell-based; details: thymidine kinase-deficient CEM/TK− cells; mean±s.d., n=2–3
# Description: (§1) Inhibition of HIV-1(IIIB)- and HIV-2(ROD)-induced cytopathicity in wild-type CEM/0 and TK-deficient CEM/TK^− cell cultures was measured in microtitre 96-well plates containing ∼3 × 10^5 CEM cells ml^−1 infected with 100 CCID50 of HIV per millilitre and containing appropriate dilutions of the test compounds. After 4−5 days of incubation at 37 °C in a CO2-controlled humidified atmosphere, CEM giant (syncytium) cell formation was examined microscopically. The EC50 (50% effective concentration) was defined as the compound concentration required to inhibit HIV-induced giant cell formation by 50%.
# CD4+ T-cell (CEM) = assay: Cytotoxicity: inhibition of CEM cell proliferation; type: cell-based, human; details: 50% cytostatic concentration, mean±s.d., n=2–3
# HIV-1(IIIB) = assay: Anti-HIV activity assay, HIV-1 in wild-type CEM/0 cells; type: cell-based; details: HIV-induced giant cell formation, mean±s.d., n=2–3
# Description: as §1
# HIV-2(ROD) [3] = assay: Anti-HIV activity assay, HIV-2 in wild-type CEM/0 cells; type: cell-based; details: wild-type CEM cells, HIV-induced giant cell formation; mean±s.d., n=2–3; read-out: EC50 CEM HIV-2
# Description: as §1
# [4] = Enzyme-catalysed hydrolysis in CEM cell extracts; details: human CEM cell extract, 37 °C
# Description: The hydrolysis mixtures were analysed by means of analytical RP-18-HPLC.
# A volume of 10 μl of the appropriate 50 mM DMSO-d6 stock solution was diluted to 6.0 mM hydrolysis solution by addition of 73.3 μl DMSO-d6. Seven different samples including 10 μl water and 10 μl hydrolysis solution were prepared. The reaction was started by addition of 50 μl human CEM cell extract and the mixture was incubated at 37 °C for different time periods of hydrolysis. The work-up depended on the particular compound: (a) for 3a–f,l,m,p and 4a,e the reactions were stopped by addition of 150 μl MeOH. The solution was kept on ice for 5 min followed by centrifugation for 5 min (13,000 r.p.m.). The supernatants were filtered (Chromafil RC-20/15 MS, 0.2 μm) and stored in liquid nitrogen. (b) For 3g–i,k,n and 4j, the samples were directly frozen in liquid nitrogen. The solution was defrosted followed by ultrasonication for 10 min. After centrifugation for 5 min the supernatants were filtered (Chromafil AO-20/3, 0.2 μm) and stored at −196 °C. (c) For 3j the mixture was diluted with 70 μl THF (HPLC grade) and frozen in liquid nitrogen followed by defrosting, ultrasonication, centrifugation, filtration and stored as described for (b). Samples were defrosted and 50–80 μl were subjected to HPLC analysis.
# Human CD4^+ T-lymphocyte CEM cells were grown in RPMI-1640-based cell culture medium to a final density of ∼3·10^6 cells ml^−1. Then, cells were centrifuged for 10 min at 1,250 r.p.m. at 4 °C, washed twice with cold PBS and the pellet was resuspended at 10^8 cells ml^−1 and sonicated (Hielscher Ultrasound Techn., 100% amplitude, three·times for 10 s) to destroy cell integrity. The resulting cell suspension was then centrifuged at 10,000 r.p.m. to remove cell debris, and the supernatant divided into aliquots before being frozen at −80 °C and used.
# HIV RT = biological target: T1, HIV RT (Human immunodeficiency virus type 1 group M subtype B, UniProt P03366); assay: Primer extension assay with HIV reverse transcriptase using PLE hydrolysate; type: biochemical; details: hydrolysate after complete consumption of prodrug and intermediate; 2.5 μM, 37 °C, 10 min
# T1 construct: Primer extension assays with HIV reverse transcriptase; purchased Roboklon
# Description: To confirm the prodrug concept and thus the direct successful release of the biologically active triphosphate metabolite, the prodrug 3e was exposed to PLE and the hydrolysis monitored with RP-18-HPLC. After complete consumption of 3e as well as its intermediate 4e the solvents were removed. For the template/primer extension assay (Fig. 4a), HIV RT was incubated with the PLE hydrolysate as such (T*) or with the PLE hydrolysate in the additional presence of dCTP (T*, C), or dCTP+dGTP (T*, C, G) or all natural 2′-deoxynucleotides (N*). […] In addition, TriPPPro-TTP 3r was synthesized (Fig. 5) and also investigated in the same way. […] The primer could be fully extended till 30 nt when T* was added in the presence of dCTP and dGTP, as also the N* and N samples could.
# The used polymerase HIV RT was obtained from Roboklon. The primer and template were purchased from Life Technologies.
# The primer extension assays were performed under the following conditions:
# The primer was labelled using [γ^32P]-ATP according to standard techniques. After 5-min incubation at 95 °C in 20 mM Tris-HCl (pH 7.6) and 50 mM NaCl, the hybridization/annealing of the primer to the template strand was achieved by a cooling phase from 95 to 20 °C over 3 h. […]
Compound,"t1/2(1) PBS, pH=7.3 [1] [h]","t1/2(2) PBS, pH=7.3 [1] [h]",t1/2(1) PLE (pig liver esterase (PLE)) [h],t1/2(2) PLE (pig liver esterase (PLE)) [h],EC50 (HIV-2(ROD) [2]) [nM],CC50 (CD4+ T-cell (CEM)) [nM],EC50 (HIV-1(IIIB)) [nM],EC50 (HIV-2(ROD) [3]) [nM],t1/2(1) CEM [4] [h],primer extension by HIV RT with PLE hydrolysate of the prodrug (HIV RT)
"CCCCCCC(=O)Oc1ccc(COP(=O)(OCc2ccc(OC(=O)CCCCCC)cc2)OP(=O)(O)OP(=O)(O)OC[C@@H]2C=C[C@H](n3cc(C)c(=O)[nH]c3=O)O2)cc1 [3d, γ-Bis-(4-heptanoyloxybenzyl)-d4TTP]",26,350,0.013,1.6,10000,74000 ± 2000,360 ± 60,940 ± 160,0.98,–
"CCCCCCCCC(=O)Oc1ccc(COP(=O)(OCc2ccc(OC(=O)CCCCCCCC)cc2)OP(=O)(O)OP(=O)(O)OC[C@@H]2C=C[C@H](n3cc(C)c(=O)[nH]c3=O)O2)cc1 [3e, γ-Bis-(4-nonanoyloxybenzyl)-d4TTP]",52,390,0.013,1.6,2260 ± 1030,52000 ± 1000,310 ± 10,620 ± 300,2.5,immediate DNA chain termination
"CCCCCCCCCC(=O)Oc1ccc(COP(=O)(OCc2ccc(OC(=O)CCCCCCCCC)cc2)OP(=O)(O)OP(=O)(O)OC[C@@H]2C=C[C@H](n3cc(C)c(=O)[nH]c3=O)O2)cc1 [3f, γ-Bis-(4-decanoyloxybenzyl)-d4TTP]",44,350,0.082,3.0,500 ± 140,34000 ± 5000,250 ± 70,330 ± 30,2.8,–
"CCCCCCCCCCCC(=O)Oc1ccc(COP(=O)(OCc2ccc(OC(=O)CCCCCCCCCCC)cc2)OP(=O)(O)OP(=O)(O)OC[C@@H]2C=C[C@H](n3cc(C)c(=O)[nH]c3=O)O2)cc1 [3g, γ-Bis-(4-dodecanoyloxybenzyl)-d4TTP]",68,410,0.95,8.3,720 ± 160,26000,210 ± 10,270 ± 60,2.2,–
"CCCCCCCCCCCCCC(=O)Oc1ccc(COP(=O)(OCc2ccc(OC(=O)CCCCCCCCCCCCC)cc2)OP(=O)(O)OP(=O)(O)OC[C@@H]2C=C[C@H](n3cc(C)c(=O)[nH]c3=O)O2)cc1 [3h, γ-Bis-(4-tetradecanoyloxybenzyl)-d4TTP]",90,355,30,–,1630 ± 520,28000 ± 7000,500 ± 140,1100 ± 230,4.6,–
"CCCCCCCCCCCCCCCC(=O)Oc1ccc(COP(=O)(OCc2ccc(OC(=O)CCCCCCCCCCCCCCC)cc2)OP(=O)(O)OP(=O)(O)OC[C@@H]2C=C[C@H](n3cc(C)c(=O)[nH]c3=O)O2)cc1 [3i, γ-Bis-(4-hexadecanoyloxybenzyl)-d4TTP]",73,462,33,–,720 ± 160,61000 ± 3000,620 ± 300,660 ± 80,5.3,–
